For one data set, the system named is mice. Nature of the data set: Lolitrem B intoxication in mice, tremor and movement analysis. It counts as in vivo. The following applies: lolitrem B 2 mg/kg IP. On the procedure: FIG. 1. Tremor analysis of animals treated with a single dose of lolitrem B toxin. Tremor analysis: FFT frequency analysis from a mouse prior to (A) and 6 hours post lolitrem B injection 2 mg/kg i.p. (B). Low frequency (0-7 Hz) power output represents primarily movement. […] (D) Tremor-Motion power ratio at one hour post lolitrem B injection (n=4) and vehicle only control (n=4) (*p<0.05, lolitrem B (2 mg/kg i.p.) vs vehicle).
Lolitrem B was tested in mice to establish this as a suitable model for perennial ryegrass toxicosis and lolitrem B intoxication in grazing animals. […] These signs are consistent with clinical signs seen in grazing animals (See FIG. 1).

Data set [1] in a line: Serum and cerebrospinal fluid bromide concentrations in the sheep trial. The class given is in vivo. The following applies: intoxicated sheep. As for the experimental part: Venous blood samples collected for biochemical analysis and haematocrit (PCV), and urine for USG, at three specific time points during the experiment for all animals: 1) on entry to the trial; 2) on date of entry to the end of trial protocol and, 3) on day of necropsy.
A full clinical examination was performed prior to euthanasia. At euthanasia, 100 I.U. heparin (Provet Riverina Pty Ltd) was injected into the jugular vein, followed shortly by Lethabarb (20 mL/40 kg LW). Immediately after euthanasia, the ventral articulation of C1 was exposed and cerebrospinal fluid (CSF) collected using a 23 g needle. The head was then removed and subjected to perfusion fixation. Briefly, the carotid arteries were exposed and a small catheter inserted and ligated to secure the perfusion lines. Two liters of 0.1% phosphate buffered saline (PBS) containing 3000 I.U of heparin/L was then slowly perfused via the ligated vessels at a pressure of 90 mm Hg using a Microgon peristaltic Pump (Microgon, Laguna Hills, Calif.). Once complete this was replaced with 4% paraformaldehyde (Sigma-Alrich) in 0.1% PBS and a further two liters allowed to perfuse slowly through the tissues of the head. Once complete, catheters were removed and the whole head placed at 4° C. overnight to complete fixation. Twenty-four hours post perfusion fixation the brain was removed from the skull and placed in 10% formal saline for storage until dissection for processing to wax sections.
Absorbance was measured with a spectrophotometer at 440 nm. […] The lower limit of quantification (LOQ) was 25 μg/mL.

As to `CC(C)=C[C@H]1O[C@H]2[C@H]3O[C@@]34[C@H](CC[C@@]3(C)[C@@]4(O)CC[C@H]4Cc5c([nH]c6ccc7c(c56)C[C@@H]5[C@@H](C7=O)C(C)(C)OC5(C)C)[C@@]43C)O[C@@H]2C(C)(C)O1` [lolitrem B], in the data set on mice, the “distinctive tremor spike, frequency range” value is 10-19 Hz and the movement entry is recorded as “decrease in movement”.

Take `[Br-].[K+]` [potassium bromide]: in data set [1] (6 hours after oral 300 mg/kg potassium bromide, n=3), the “mean serum bromide concentration” value worked out at 899.43 µg/mL. In data set [1] (48 hours after oral 300 mg/kg potassium bromide, n=6), the “final mean serum bromide concentration” value came out at 804.34 µg/mL.

Source of the values: patent publication US9913858B2, “Prevention and treatment of toxicosis” (priority 2013, dated 2018).
